Measurements from patent publication US20230150953A1, “SUBSTITUTED ISOPHTHALIC ACID DIAMIDES” (Bayer Aktiengesellschaft, priority 2020, published 2023).

What was measured:
Assay type in all cases: in vivo
[1] = test system: AMARE Amaranthus retroflexus; test: Pre-emergence herbicidal action against harmful plants; conditions: scored visually after 3 weeks vs untreated controls
From the text: (§1) The abbreviations used for the harmful plants mean: • ABUTH Abutilon theophrasti ALOMY Alopecurus myosuroides • AVEFA Avena fatua AMARE Amaranthus retroflexus • CYPES Cyperus esculentus DIGSA Digitaria sanguinalis • ECHCG Echinochloa crus-galli HORMU Hordeum murinum • LOLMU Lolium multiflorum LOLRI Lolium rigidum • MATIN Matricaria inodora PHBPU Pharbitis purpurea • POLCO Polygonum convolvulus SETVI Setaria viridis • STEME Stellaria media VERPE Veronica persica • VIOTR Viola tricolor 1. Pre-Emergence Herbicidal Action Against Harmful Plants Seeds of monocotyledonous and dicotyledonous weed plants and crop plants are laid out in sandy loam soil in wood-fiber pots and covered with soil. The compounds of the invention, formulated in the form of wettable powders (WP) or as emulsion concentrates (EC), are then applied to the surface of the covering soil in the form of an aqueous suspension or emulsion at a water application rate equivalent to 600 to 800 l/ha, with addition of 0.2% wetting agent. After the treatment, the pots are placed in a greenhouse and kept under good growth conditions for the trial plants. The damage to the test plants is scored visually after a test period of 3 weeks by comparison with untreated controls (herbicidal activity in percent (%): 100% activity=the plants have died, 0% activity=like control plants). […] The tables below illustrate, in an illustrative manner, the post-emergence herbicidal action of the compounds of the invention, the herbicidal activity being stated in percent.

[2] = test system: ECHCG Echinochloa crus-galli; test: as above; conditions: scored visually after 3 weeks vs untreated controls
From the text: as §1

[3] = test system: ABUTH Abutilon theophrasti; test: as above; conditions: scored visually after 3 weeks vs untreated controls
From the text: as §1

VERPE Veronica persica = test: as above; conditions: scored visually after 3 weeks vs untreated controls
From the text: as §1

[4] = test system: DIGSA Digitaria sanguinalis; test: as above; conditions: scored visually after 3 weeks vs untreated controls
From the text: as §1

MATIN Matricaria inodora [5] = test: as above; conditions: scored visually after 3 weeks vs untreated controls
From the text: as §1

MATIN Matricaria inodora [6] = test: Post-emergence herbicidal action against harmful plants; conditions: one-leaf stage, assessed visually after about 3 weeks vs untreated controls
From the text: (§2) The abbreviations used for the harmful plants mean: • ABUTH Abutilon theophrasti ALOMY Alopecurus myosuroides • AVEFA Avena fatua AMARE Amaranthus retroflexus • CYPES Cyperus esculentus DIGSA Digitaria sanguinalis • ECHCG Echinochloa crus-galli HORMU Hordeum murinum • LOLMU Lolium multiflorum LOLRI Lolium rigidum • MATIN Matricaria inodora PHBPU Pharbitis purpurea • POLCO Polygonum convolvulus SETVI Setaria viridis • STEME Stellaria media VERPE Veronica persica • VIOTR Viola tricolor 2. Post-Emergence Herbicidal Action Against Harmful Plants Seeds of monocotyledonous and dicotyledonous weed and crop plants are laid out in sandy loam soil in wood-fiber pots, covered with soil and cultivated in a greenhouse under good growth conditions. 2 to 3 weeks after sowing, the test plants are treated at the one-leaf stage. The compounds of the invention, formulated in the form of wettable powders (WP) or as emulsion concentrates (EC), are then sprayed onto the green parts of the plants in the form of an aqueous suspension or emulsion at a water application rate equivalent to 600 to 800 l/ha, with addition of 0.2% wetting agent. After the test plants have been left to stand in the greenhouse under optimal growth conditions for about 3 weeks, the action of the preparations is assessed visually in comparison to untreated controls (herbicidal action in percent (%): 100% activity=the plants have died, 0% activity=like control plants). […] The tables below illustrate, in an illustrative manner, the post-emergence herbicidal action of the compounds of the invention, the herbicidal activity being stated in percent.

SETVI Setaria viridis = test: Pre-emergence herbicidal action against harmful plants; conditions: 80 g/ha, scored visually after 3 weeks vs untreated controls
From the text: as §1

AVEFA Avena fatua = test: as above; conditions: scored visually after 3 weeks vs untreated controls
From the text: as §1

[7] = test system: ALOMY Alopecurus myosuroides; test: as above; conditions: scored visually after 3 weeks vs untreated controls
From the text: as §1

[8] = test system: POLCO Polygonum convolvulus; test: as above; conditions: 80 g/ha, scored visually after 3 weeks vs untreated controls
From the text: as §1

[9] = test system: AMARE Amaranthus retroflexus; test: Post-emergence herbicidal action against harmful plants; conditions: one-leaf stage, assessed visually after about 3 weeks vs untreated controls
From the text: as §2

[10] = test system: ECHCG Echinochloa crus-galli; test: as above; conditions: one-leaf stage, assessed visually after about 3 weeks vs untreated controls
From the text: as §2

[11] = test system: ALOMY Alopecurus myosuroides; test: as above; conditions: one-leaf stage, assessed visually after about 3 weeks vs untreated controls
From the text: as §2

LOLRI Lolium rigidum = test: Pre-emergence herbicidal action against harmful plants; conditions: scored visually after 3 weeks vs untreated controls
From the text: as §1

PHBPU Pharbitis purpurea [12] = test: as above; conditions: 80 g/ha, scored visually after 3 weeks vs untreated controls
From the text: as §1

[13] = test system: DIGSA Digitaria sanguinalis; test: Post-emergence herbicidal action against harmful plants; conditions: one-leaf stage, assessed visually after about 3 weeks vs untreated controls
From the text: as §2

[14] = test system: POLCO Polygonum convolvulus; test: as above; conditions: one-leaf stage, assessed visually after about 3 weeks vs untreated controls
From the text: as §2

PHBPU Pharbitis purpurea [15] = test: as above; conditions: one-leaf stage, assessed visually after about 3 weeks vs untreated controls
From the text: as §2

SMILES	Pre-emergence action at 20 g/ha against AMARE in % [1]	Pre-emergence action at 80 g/ha against AMARE in % [1]	Pre-emergence action at 80 g/ha against ECHCG in % [2]	Pre-emergence action at 20 g/ha against ABUTH in % [3]	Pre-emergence action at 80 g/ha against ABUTH in % [3]	Pre-emergence action at 20 g/ha against DIGSA in % [4]	Pre-emergence action at 80 g/ha against DIGSA in % [4]	Pre-emergence action at 20 g/ha against MATIN in % (MATIN Matricaria inodora [5])	Pre-emergence action at 80 g/ha against MATIN in % (MATIN Matricaria inodora [5])	Post-emergence action at 20 g/ha against MATIN in % (MATIN Matricaria inodora [6])	Pre-emergence action at 80 g/ha against SETVI in % (SETVI Setaria viridis)	Pre-emergence action at 80 g/ha against AVEFA in % (AVEFA Avena fatua)	Pre-emergence action at 80 g/ha against ALOMY in % [7]	Pre-emergence action at 80 g/ha against POLCO in % [8]	Post-emergence action at 5 g/ha against AMARE in % [9]	Post-emergence action at 20 g/ha against AMARE in % [9]	Post-emergence action at 20 g/ha against ALOMY in % [11]	Post-emergence action at 20 g/ha against POLCO in % [14]	further results
CCn1nnnc1NC(=O)c1c(F)cc(C(F)(F)F)c(C(=O)N(C)C2CC2)c1C [Example 2-97]	100%	100%	80%	100%	100%	90%	100%	90%	100%	80%	–	–	–	–	–	–	–	–	Pre-emergence action at 20 g/ha against VERPE in % (VERPE Veronica persica; 20 g/ha): 80%; Pre-emergence action at 80 g/ha against VERPE in % (VERPE Veronica persica; 80 g/ha): 80%
Cc1c(C(=O)Nc2nnnn2C)c(F)cc(C(F)(F)F)c1C(=O)NCC1CC1 [Example 1-384]	100%	100%	100%	–	100%	100%	100%	–	80%	–	90%	80%	80%	90%	80%	90%	80%	–	Post-emergence action at 5 g/ha against ECHCG in % ([10]; 5 g/ha): 80%; Post-emergence action at 20 g/ha against ECHCG in % ([10]; 20 g/ha): 80%
CCn1nnnc1NC(=O)c1cc(Cl)c(C(F)(F)F)c(C(=O)NC2CC2)c1C [Example 2-85]	100%	100%	80%	80%	100%	80%	100%	90%	100%	80%	100%	80%	90%	80%	80%	90%	80%	80%	Pre-emergence action at 80 g/ha against LOLRI in % (LOLRI Lolium rigidum): 80%; Pre-emergence action at 20 g/ha against ALOMY in % ([7]; 20 g/ha): 80%; Pre-emergence action at 80 g/ha against PHBPU in % (PHBPU Pharbitis purpurea [12]): 90%; Post-emergence action at 20 g/ha against DIGSA in % [13]: 90%; Post-emergence action at 5 g/ha against PHBPU in % (PHBPU Pharbitis purpurea [15]; 5 g/ha): 80%; Post-emergence action at 20 g/ha against PHBPU in % (PHBPU Pharbitis purpurea [15]; 20 g/ha): 90%
Cc1c(C(=O)Nc2nnnn2C)c(F)cc(C(F)(F)F)c1C(=O)N(C)C1CC1 [Example 1-97]	100%	100%	90%	100%	100%	80%	100%	90%	100%	80%	80%	–	80%	–	–	–	–	100%	–
